{"source": "ChEMBL document CHEMBL1649565", "about": "“Besifloxacin, a novel fluoroquinolone, has broad-spectrum in vitro activity against aerobic and anaerobic bacteria” (Antimicrob Agents Chemother, 2009)", "type_in_all_cases": "functional", "key": {"Acinetobacter baumannii [1]": {"test_system": "Acinetobacter baumannii", "experiment": "Antibacterial activity against Acinetobacter baumannii by CLSI M7-A7 method"}, "[2]": {"test_system": "Acinetobacter calcoaceticus", "experiment": "Antibacterial activity against Acinetobacter calcoaceticus by CLSI M7-A7 method"}, "Acinetobacter lwoffii [3]": {"test_system": "Acinetobacter lwoffii", "experiment": "Antibacterial activity against Acinetobacter lwoffii by CLSI M7-A7 method"}, "Citrobacter freundii [4]": {"test_system": "Citrobacter freundii", "experiment": "Antibacterial activity against Citrobacter freundii by CLSI M7-A7 method"}, "Citrobacter koseri [5]": {"test_system": "Citrobacter koseri", "experiment": "Antibacterial activity against Citrobacter koseri by CLSI M7-A7 method"}, "Klebsiella aerogenes [6]": {"test_system": "Klebsiella aerogenes", "experiment": "Antibacterial activity against Enterobacter aerogenes by CLSI M7-A7 method"}, "Enterobacter cloacae [7]": {"test_system": "Enterobacter cloacae", "experiment": "Antibacterial activity against Enterobacter cloacae by CLSI M7-A7 method"}, "Klebsiella oxytoca [8]": {"test_system": "Klebsiella oxytoca", "experiment": "Antibacterial activity against Klebsiella oxytoca by CLSI M7-A7 method"}, "Klebsiella pneumoniae [9]": {"test_system": "Klebsiella pneumoniae", "experiment": "Antibacterial activity against Klebsiella pneumoniae by CLSI M7-A7 method"}, "Morganella morganii [10]": {"test_system": "Morganella morganii", "experiment": "Antibacterial activity against Morganella morganii by CLSI M7-A7 method"}, "Proteus mirabilis [11]": {"test_system": "Proteus mirabilis", "experiment": "Antibacterial activity against Proteus mirabilis by CLSI M7-A7 method"}, "Proteus vulgaris [12]": {"test_system": "Proteus vulgaris", "experiment": "Antibacterial activity against Proteus vulgaris by CLSI M7-A7 method"}, "Pseudomonas aeruginosa [13]": {"test_system": "Pseudomonas aeruginosa", "experiment": "Antibacterial activity against ciprofloxacin-susceptible Pseudomonas aeruginosa by CLSI M7-A7 method"}, "Pseudomonas aeruginosa [14]": {"test_system": "Pseudomonas aeruginosa", "experiment": "Antibacterial activity against non-ciprofloxacin-susceptible Pseudomonas aeruginosa by CLSI M7-A7 method"}, "Serratia marcescens [15]": {"test_system": "Serratia marcescens", "experiment": "Antibacterial activity against Serratia marcescens by CLSI M7-A7 method"}, "[16]": {"test_system": "Stenotrophomonas maltophilia", "experiment": "Antibacterial activity against non-levofloxacin susceptible Stenotrophomonas maltophilia by CLSI M7-A7 method"}, "Acinetobacter baumannii [17]": {"test_system": "Acinetobacter baumannii", "experiment": "Antibacterial activity against Acinetobacter baumannii assessed as percent susceptible isolates by CLSI M7-A7 method"}, "[18]": {"test_system": "Acinetobacter calcoaceticus", "experiment": "Antibacterial activity against Acinetobacter calcoaceticus assessed as percent susceptible isolates by CLSI M7-A7 method"}, "Acinetobacter lwoffii [19]": {"test_system": "Acinetobacter lwoffii", "experiment": "Antibacterial activity against Acinetobacter lwoffii assessed as percent susceptible isolates by CLSI M7-A7 method"}, "Citrobacter freundii [20]": {"test_system": "Citrobacter freundii", "experiment": "Antibacterial activity against Citrobacter freundii assessed as percent susceptible isolates by CLSI M7-A7 method"}, "Citrobacter koseri [21]": {"test_system": "Citrobacter koseri", "experiment": "Antibacterial activity against Citrobacter koseri assessed as percent susceptible isolates by CLSI M7-A7 method"}, "Klebsiella aerogenes [22]": {"test_system": "Klebsiella aerogenes", "experiment": "Antibacterial activity against Enterobacter aerogenes assessed as percent susceptible isolates by CLSI M7-A7 method"}, "Enterobacter cloacae [23]": {"test_system": "Enterobacter cloacae", "experiment": "Antibacterial activity against Enterobacter cloacae assessed as percent susceptible isolates by CLSI M7-A7 method"}, "Klebsiella oxytoca [24]": {"test_system": "Klebsiella oxytoca", "experiment": "Antibacterial activity against Klebsiella oxytoca assessed as percent susceptible isolates by CLSI M7-A7 method"}, "Klebsiella pneumoniae [25]": {"test_system": "Klebsiella pneumoniae", "experiment": "Antibacterial activity against Klebsiella pneumoniae assessed as percent susceptible isolates by CLSI M7-A7 method"}, "Morganella morganii [26]": {"test_system": "Morganella morganii", "experiment": "Antibacterial activity against Morganella morganii assessed as percent susceptible isolates by CLSI M7-A7 method"}, "Proteus mirabilis [27]": {"test_system": "Proteus mirabilis", "experiment": "Antibacterial activity against Proteus mirabilis assessed as percent susceptible isolates by CLSI M7-A7 method"}, "Proteus vulgaris [28]": {"test_system": "Proteus vulgaris", "experiment": "Antibacterial activity against Proteus vulgaris assessed as percent susceptible isolates by CLSI M7-A7 method"}, "Pseudomonas aeruginosa [29]": {"test_system": "Pseudomonas aeruginosa", "experiment": "Antibacterial activity against ciprofloxacin-susceptible Pseudomonas aeruginosa assessed as percent susceptible isolates by CLSI M7-A7 method"}, "Pseudomonas aeruginosa [30]": {"test_system": "Pseudomonas aeruginosa", "experiment": "Antibacterial activity against non-ciprofloxacin-susceptible Pseudomonas aeruginosa assessed as percent susceptible isolates by CLSI M7-A7 method"}, "Serratia marcescens [31]": {"test_system": "Serratia marcescens", "experiment": "Antibacterial activity against levofloxacin susceptible Serratia marcescens assessed as percent susceptible isolates by CLSI M7-A7 method"}, "[32]": {"test_system": "Stenotrophomonas maltophilia", "experiment": "Antibacterial activity against non-levofloxacin susceptible Stenotrophomonas maltophilia assessed as percent susceptible isolates by CLSI M7-A7 method"}, "[33]": {"test_system": "Stenotrophomonas maltophilia", "experiment": "Antibacterial activity against levofloxacin-susceptible Stenotrophomonas maltophilia by CLSI M7-A7 method"}, "[34]": {"test_system": "Stenotrophomonas maltophilia", "experiment": "Antibacterial activity against levofloxacin-susceptible Stenotrophomonas maltophilia assessed as assessed as percent susceptible isolates by CLSI M7-A7 method"}}}
{"smiles": "CC(C)(O/N=C(\\C(=O)N[C@@H]1C(=O)N2C(C(=O)[O-])=C(C[n+]3ccccc3)CS[C@H]12)c1csc(N)n1)C(=O)O", "note": "[CEFTAZIDIME]", "values": [{"measurement": "MIC50", "setting": "Acinetobacter baumannii [1]", "result": "> 16", "unit": "µg/mL"}, {"measurement": "MIC90", "setting": "Acinetobacter baumannii [1]", "result": "> 16", "unit": "µg/mL"}, {"measurement": "MIC50", "setting": "[2]", "result": 4, "unit": "µg/mL"}, {"measurement": "MIC90", "setting": "[2]", "result": "> 16", "unit": "µg/mL"}, {"measurement": "MIC50", "setting": "Acinetobacter lwoffii [3]", "result": 2, "unit": "µg/mL"}, {"measurement": "MIC90", "setting": "Acinetobacter lwoffii [3]", "result": "> 16", "unit": "µg/mL"}, {"measurement": "MIC50", "setting": "Citrobacter freundii [4]", "result": 0.25, "unit": "µg/mL"}, {"measurement": "MIC90", "setting": "Citrobacter freundii [4]", "result": "> 16", "unit": "µg/mL"}, {"measurement": "MIC50", "setting": "Citrobacter koseri [5]", "result": 0.12, "unit": "µg/mL"}, {"measurement": "MIC90", "setting": "Citrobacter koseri [5]", "result": 0.5, "unit": "µg/mL"}, {"measurement": "MIC50", "setting": "Klebsiella aerogenes [6]", "result": 2, "unit": "µg/mL"}, {"measurement": "MIC90", "setting": "Klebsiella aerogenes [6]", "result": "> 16", "unit": "µg/mL"}, {"measurement": "MIC50", "setting": "Enterobacter cloacae [7]", "result": 0.5, "unit": "µg/mL"}, {"measurement": "MIC90", "setting": "Enterobacter cloacae [7]", "result": "> 16", "unit": "µg/mL"}, {"measurement": "MIC50", "setting": "Klebsiella oxytoca [8]", "result": 0.12, "unit": "µg/mL"}, {"measurement": "MIC90", "setting": "Klebsiella oxytoca [8]", "result": 0.5, "unit": "µg/mL"}, {"measurement": "MIC50", "setting": "Klebsiella pneumoniae [9]", "result": 0.12, "unit": "µg/mL"}, {"measurement": "MIC90", "setting": "Klebsiella pneumoniae [9]", "result": 1, "unit": "µg/mL"}, {"measurement": "MIC50", "setting": "Morganella morganii [10]", "result": 0.12, "unit": "µg/mL"}, {"measurement": "MIC90", "setting": "Morganella morganii [10]", "result": 16, "unit": "µg/mL"}, {"measurement": "MIC", "setting": "Proteus mirabilis [11]", "result": "≤ 0.03", "unit": "µg/mL"}, {"measurement": "MIC50", "setting": "Proteus mirabilis [11]", "result": "≤ 0.03", "unit": "µg/mL"}, {"measurement": "MIC90", "setting": "Proteus mirabilis [11]", "result": 0.06, "unit": "µg/mL"}, {"measurement": "MIC50", "setting": "Proteus vulgaris [12]", "result": 0.06, "unit": "µg/mL"}, {"measurement": "MIC90", "setting": "Proteus vulgaris [12]", "result": 0.12, "unit": "µg/mL"}, {"measurement": "MIC50", "setting": "Pseudomonas aeruginosa [13]", "result": 2, "unit": "µg/mL"}, {"measurement": "MIC90", "setting": "Pseudomonas aeruginosa [13]", "result": 8, "unit": "µg/mL"}, {"measurement": "MIC50", "setting": "Pseudomonas aeruginosa [14]", "result": 4, "unit": "µg/mL"}, {"measurement": "MIC90", "setting": "Pseudomonas aeruginosa [14]", "result": "> 16", "unit": "µg/mL"}, {"measurement": "MIC50", "setting": "Serratia marcescens [15]", "result": 0.06, "unit": "µg/mL"}, {"measurement": "MIC90", "setting": "Serratia marcescens [15]", "result": 0.5, "unit": "µg/mL"}, {"measurement": "MIC", "setting": "[16]", "result": 0.5, "unit": "µg/mL"}, {"measurement": "Activity", "setting": "Acinetobacter baumannii [17]", "result": 39.6, "unit": "%"}, {"measurement": "Activity", "setting": "[18]", "result": 63, "unit": "%"}, {"measurement": "Activity", "setting": "Acinetobacter lwoffii [19]", "result": 76, "unit": "%"}, {"measurement": "Activity", "setting": "Citrobacter freundii [20]", "result": 78, "unit": "%"}, {"measurement": "Activity", "setting": "Citrobacter koseri [21]", "result": 100, "unit": "%"}, {"measurement": "Activity", "setting": "Klebsiella aerogenes [22]", "result": 62, "unit": "%"}, {"measurement": "Activity", "setting": "Enterobacter cloacae [23]", "result": 70, "unit": "%"}, {"measurement": "Activity", "setting": "Klebsiella oxytoca [24]", "result": 100, "unit": "%"}, {"measurement": "Activity", "setting": "Klebsiella pneumoniae [25]", "result": 92, "unit": "%"}, {"measurement": "Activity", "setting": "Morganella morganii [26]", "result": 82.4, "unit": "%"}, {"measurement": "Activity", "setting": "Proteus mirabilis [27]", "result": 98, "unit": "%"}, {"measurement": "Activity", "setting": "Proteus vulgaris [28]", "result": 100, "unit": "%"}, {"measurement": "Activity", "setting": "Pseudomonas aeruginosa [29]", "result": 93.3, "unit": "%"}, {"measurement": "Activity", "setting": "Pseudomonas aeruginosa [30]", "result": 57.3, "unit": "%"}, {"measurement": "Activity", "setting": "Serratia marcescens [31]", "result": 93, "unit": "%"}, {"measurement": "Activity", "setting": "[32]", "result": 43.8, "unit": "%"}, {"measurement": "MIC", "setting": "[33]", "result": 0.5, "unit": "µg/mL"}, {"measurement": "Activity", "setting": "[34]", "result": 32.7, "unit": "%"}]}
